Measurements reported in patent publication US11446347B2, “Antithrombotic composition comprising Angelica gigas Nakai extract” (Astrogenesis Co., Ltd., priority 2018, dated 2022).

Tested on: thrombus-induced mouse model
Assay: In-vivo antithrombotic test, Rota-rod, collagen/epinephrine thrombus-induced mouse model
Set-up: species or system ICR mice
Details: thrombus induced 90 min after drug, Rota-rod 24 rpm after 15 min
Description: As for the experimental animals, 5-week-old female ICR mice provided by YoungBio were stabilized in an animal laboratory at a temperature of 24±1° C., a humidity of 55±5% in a 12-hour day-night cycle for 1 week and used in the experiments.
The change in behavioral capacity was evaluated for the prepared thrombus-induced mouse model using Rota-rod, and the antithrombotic effect of the Angelica gigas Nakai extract was evaluated. The thrombus-induced mouse model was prepared as follows. A 6-week-old ICR mouse (about 20 to 25 g) stabilized as an experimental mouse was prepared, and subjected to Rota-rod training, and the reference value was created three times, and the rotation speed was set to 24 rpm, and objects withstanding without falling at a rotation speed of 300 or more were selected. […] After 15 minutes, Rota-rod testing was repeated 3 times (rotation speed: 24 rpm), and the difference in athletic performance was analyzed by the following Equation: Protection rate (%)=[(Total number of individuals−Number of killed or paralyzed individuals)/Total number of individuals]×100
Number of killed or paralyzed individuals: The number of individuals who fell at a rotation speed of 24 rpm or less in Rota-rod testing at a rotation speed of 150 or less)

Structure (SMILES) | Number of killed or paralyzed individuals / Number of total individuals (dose 10 mg/kg) | Protection (%) (dose 10 mg/kg) | Number of killed or paralyzed individuals / Number of total individuals (dose 100 mg/kg) | Protection (%) (dose 100 mg/kg)
CC(C)=CC(=O)O[C@H]1Cc2cc3ccc(=O)oc3cc2OC1(C)C [Decursin, decursin] | 11/18 | 38.9% | – | –
CC1(C)Oc2cc3oc(=O)ccc3cc2C[C@@H]1O [Decursinol, decursinol] | 12/19 | 36.8% | – | –
CC(=O)Oc1ccccc1C(=O)O [ASA (Aspirin), acetylsalicylic acid] | – | – | 11/20 | 45%
